Literature values in patent publication US8431806B2, “Liposomal formulations of anthracycline agents and cytidine analogs” (Celator Pharmaceuticals, Inc., priority 2004, dated 2013).

Conditions: in vivo

half-life for elimination: 19 h
oral absorption (po): low
SMILES: COc1cccc2c1C(=O)c1c(O)c3c(c(O)c1C2=O)C[C@@](O)(C(C)=O)C[C@@H]3O[C@H]1C[C@H](N)[C@H](O)[C@H](C)O1 [Daunorubicin]
